Test results as given in ChEMBL document CHEMBL2375306, “Antimicrobial peptides containing unnatural amino acid exhibit potent bactericidal activity against ESKAPE pathogens” (Bioorg Med Chem, 2013).
In brackets after ≈: the same amount, converted by molar mass. Square brackets hold non-standard residues; d marks the D form. Peptide text beside a SMILES is read from it. * marks the point of attachment. ξ: configuration not given here. X2 = NCCCC[C@H](NC(=O)[C@H](CCCCN)NC(=O)[C@H](CCCCN)NC(=O)[C@H](CCCCN)NCCCCCC(=O)[C@@H]1Cc2ccccc2CN1*)C(N)=O; X3 = NCCCC[C@H](NC(=O)[C@H](CCCCN)NC(=O)[C@H](CCCCN)NC(=O)[C@H](CCCCN)NCCCC(=O)[C@@H]1Cc2ccccc2CN1*)C(N)=O; Pro(3ξ,4ξ-(CH2)4) = O=C(O)[C@H]1NCC2CCCCC21; Tic = O=C(O)[C@@H]1Cc2ccccc2CN1

Legend:
Format in all cases: functional
Enterococcus faecium = test: Antibacterial activity against Enterococcus faecium MMC4 after 24 hrs by broth microdilution method; settings: MMC4, 24 h
Klebsiella aerogenes = test: Antibacterial activity against Enterobacter aerogenes after 24 hrs by broth microdilution method
Pseudomonas aeruginosa = test: Antibacterial activity against Pseudomonas aeruginosa PAO1 after 24 hrs by broth microdilution method; settings: PAO1, 24 h
Klebsiella pneumoniae = test: Antibacterial activity against Klebsiella pneumoniae BAMS clinical isolate 07-18 after 24 hrs by broth microdilution method; settings: BAMS clinical isolate 07-18, 24 h
Acinetobacter baumannii = test: Antibacterial activity against Acinetobacter baumannii WRAIR clinical isolate 13 after 24 hrs by broth microdilution method; settings: WRAIR clinical isolate 13, 24 h
Staphylococcus aureus = test: Antibacterial activity against methicillin-sensitive Staphylococcus aureus UAMS-1 after 24 hrs by broth microdilution method; settings: UAMS-1, 24 h

SMILES | MIC (Enterococcus faecium) [µg/mL] | MIC (Klebsiella aerogenes) [µg/mL] | MIC (Pseudomonas aeruginosa) [µg/mL] | MIC (Klebsiella pneumoniae) [µg/mL] | MIC (Acinetobacter baumannii) [µg/mL] | MIC (Staphylococcus aureus) [µg/mL] | MBC (Enterococcus faecium) [µg/mL] | MBC (Klebsiella aerogenes) [µg/mL] | MBC (Pseudomonas aeruginosa) [µg/mL] | MBC (Klebsiella pneumoniae) [µg/mL] | MBC (Acinetobacter baumannii) [µg/mL] | MBC (Staphylococcus aureus) [µg/mL]
CC(C)C[C@H](NC(=O)[C@@H](N)CCCCN)C(=O)N1Cc2ccccc2C[C@H]1C(=O)N1CC2CCCCC2[C@H]1C(=O)N[C@@H](CCCCN)C(=O)N1Cc2ccccc2C[C@H]1C(=O)N1CC2CCCCC2[C@H]1C(=O)N[C@@H](Cc1ccccc1)C(=O)N1Cc2ccccc2C[C@H]1C(=O)N1CC2CCCCC2[C@H]1C(=O)N[C@@H](CCCCN)C(=O)N1Cc2ccccc2C[C@H]1C(=O)N1CC2CCCCC2[C@H]1C(=O)N[C@@H](Cc1ccccc1)C(=O)N1Cc2ccccc2C[C@H]1C(=O)N1CC2CCCCC2[C@H]1C(=O)N[C@@H](CCCCN)C(=O)N1Cc2ccccc2C[C@H]1C(=O)N1CC2CCCCC2[C@H]1C(=O)N[C@@H](CCCCN)C(=O)N[C@@H](CCCNC(=N)N)C(N)=O (stereo partly specified) (H-KL[Tic][Pro(3ξ,4ξ-(CH2)4)]K[Tic][Pro(3ξ,4ξ-(CH2)4)]F[Tic][Pro(3ξ,4ξ-(CH2)4)]K[Tic][Pro(3ξ,4ξ-(CH2)4)]F[Tic][Pro(3ξ,4ξ-(CH2)4)]K[Tic][Pro(3ξ,4ξ-(CH2)4)]KR-NH2) | 12.5 (≈ 4.05 µM) | > 100 | > 100 | > 100 | 100 (≈ 32.4 µM) | 50 (≈ 16.2 µM) | 25 (≈ 8.11 µM) | > 100 | > 100 | > 100 | > 100 | 50 (≈ 16.2 µM)
CC(=O)NCC(=O)N[C@@H](Cc1ccccc1)C(=O)N1Cc2ccccc2C[C@H]1C(=O)N1CC2CCCCC2[C@H]1C(=O)NCC(=O)N[C@@H](CCCCN)C(=O)N1Cc2ccccc2C[C@H]1C(=O)N1CC2CCCCC2[C@H]1C(=O)NCC(=O)N[C@@H](Cc1ccccc1)C(=O)N1Cc2ccccc2C[C@H]1C(=O)N1CC2CCCCC2[C@H]1C(=O)NCC(=O)N[C@@H](CCCCN)C(=O)N1Cc2ccccc2C[C@H]1C(=O)CCCCCN[C@@H](CCCCN)C(=O)N[C@@H](CCCCN)C(=O)N[C@@H](CCCCN)C(=O)N[C@@H](CCCCN)C(N)=O (stereo partly specified) (Ac-GF[Tic][Pro(3ξ,4ξ-(CH2)4)]GK[Tic][Pro(3ξ,4ξ-(CH2)4)]GF[Tic][Pro(3ξ,4ξ-(CH2)4)]GK-X2) | 25 (≈ 9.96 µM) | 100 (≈ 39.8 µM) | 100 (≈ 39.8 µM) | 100 (≈ 39.8 µM) | 12.5 (≈ 4.98 µM) | 100 (≈ 39.8 µM) | > 100 | > 100 | > 100 | 100 (≈ 39.8 µM) | 25 (≈ 9.96 µM) | > 100
CC(=O)N[C@@H](CCCCN)C(=O)N[C@@H](CC(C)C)C(=O)N1Cc2ccccc2C[C@H]1C(=O)N1CC2CCCCC2[C@H]1C(=O)N[C@@H](CCCCN)C(=O)N1Cc2ccccc2C[C@H]1C(=O)N1CC2CCCCC2[C@H]1C(=O)N[C@@H](Cc1ccccc1)C(=O)N1Cc2ccccc2C[C@H]1C(=O)N1CC2CCCCC2[C@H]1C(=O)N[C@@H](CCCCN)C(=O)N1Cc2ccccc2C[C@H]1C(=O)N1CC2CCCCC2[C@H]1C(=O)N[C@@H](Cc1ccccc1)C(=O)N1Cc2ccccc2C[C@H]1C(=O)N1CC2CCCCC2[C@H]1C(=O)N[C@@H](CCCCN)C(=O)N1Cc2ccccc2C[C@H]1C(=O)N1CC2CCCCC2[C@H]1C(=O)N[C@@H](CCCCN)C(=O)N[C@@H](CCCCN)C(=O)N[C@@H](CCCCN)C(=O)N[C@@H](CCCCN)C(N)=O (stereo partly specified) (Ac-KL[Tic][Pro(3ξ,4ξ-(CH2)4)]K[Tic][Pro(3ξ,4ξ-(CH2)4)]F[Tic][Pro(3ξ,4ξ-(CH2)4)]K[Tic][Pro(3ξ,4ξ-(CH2)4)]F[Tic][Pro(3ξ,4ξ-(CH2)4)]K[Tic][Pro(3ξ,4ξ-(CH2)4)]KKKK-NH2) | 12.5 (≈ 3.73 µM) | > 100 | > 100 | > 100 | 100 (≈ 29.8 µM) | 50 (≈ 14.9 µM) | 25 (≈ 7.45 µM) | > 100 | > 100 | > 100 | 100 (≈ 29.8 µM) | 50 (≈ 14.9 µM)
CC(=O)NCC(=O)N[C@@H](Cc1ccccc1)C(=O)N1Cc2ccccc2C[C@H]1C(=O)N1CC2CCCCC2[C@H]1C(=O)NCC(=O)N[C@@H](Cc1c[nH]c2ccccc12)C(=O)N1Cc2ccccc2C[C@H]1C(=O)N1CC2CCCCC2[C@H]1C(=O)NCC(=O)N[C@@H](Cc1ccccc1)C(=O)N1Cc2ccccc2C[C@H]1C(=O)N1CC2CCCCC2[C@H]1C(=O)NCC(=O)N[C@@H](Cc1c[nH]c2ccccc12)C(=O)N1Cc2ccccc2C[C@H]1C(=O)N[C@@H](CCCCN)C(=O)N[C@@H](CCCCN)C(=O)N[C@@H](CCCCN)C(=O)N[C@@H](CCCCN)C(N)=O (stereo partly specified) (Ac-GF[Tic][Pro(3ξ,4ξ-(CH2)4)]GW[Tic][Pro(3ξ,4ξ-(CH2)4)]GF[Tic][Pro(3ξ,4ξ-(CH2)4)]GW[Tic]KKKK-NH2) | 25 (≈ 9.78 µM) | > 100 | > 100 | > 100 | 25 (≈ 9.78 µM) | > 100 | 100 (≈ 39.1 µM) | > 100 | > 100 | > 100 | 100 (≈ 39.1 µM) | > 100

More lines, main results first:

MIC (Enterococcus faecium) [µg/mL] | MIC (Klebsiella aerogenes) [µg/mL] | MIC (Pseudomonas aeruginosa) [µg/mL] | MIC (Klebsiella pneumoniae) [µg/mL] | MIC (Acinetobacter baumannii) [µg/mL] | MIC (Staphylococcus aureus) [µg/mL] | SMILES | MBC (Enterococcus faecium) [µg/mL] | MBC (Klebsiella aerogenes) [µg/mL] | MBC (Pseudomonas aeruginosa) [µg/mL] | MBC (Klebsiella pneumoniae) [µg/mL] | MBC (Acinetobacter baumannii) [µg/mL] | MBC (Staphylococcus aureus) [µg/mL]
6.25 (≈ 1.82 µM) | 100 (≈ 29.2 µM) | 50 (≈ 14.6 µM) | 50 (≈ 14.6 µM) | 12.5 (≈ 3.65 µM) | 25 (≈ 7.3 µM) | CC(C)C[C@H](NC(=O)[C@@H](N)CCCCN)C(=O)N1Cc2ccccc2C[C@H]1C(=O)N1CC2CCCCC2[C@H]1C(=O)N[C@@H](CCCCN)C(=O)N1Cc2ccccc2C[C@H]1C(=O)N1CC2CCCCC2[C@H]1C(=O)NC(=O)[C@H](Cc1ccccc1)NCC(=O)N1Cc2ccccc2C[C@H]1C(=O)N1CC2CCCCC2[C@H]1C(=O)N[C@@H](CCCCN)C(=O)N1Cc2ccccc2C[C@H]1C(=O)N1CC2CCCCC2[C@H]1C(=O)NC(=O)[C@H](Cc1ccccc1)NCC(=O)N1Cc2ccccc2C[C@H]1C(=O)N1CC2CCCCC2[C@H]1C(=O)N[C@@H](CCCCN)C(=O)N1Cc2ccccc2C[C@H]1C(=O)N1CC2CCCCC2[C@H]1C(=O)N[C@@H](CCCCN)C(=O)N[C@@H](CCCCN)C(=O)N[C@@H](CCCCN)C(=O)N[C@@H](CCCCN)C(N)=O (stereo partly specified) | 25 (≈ 7.3 µM) | 100 (≈ 29.2 µM) | 50 (≈ 14.6 µM) | 100 (≈ 29.2 µM) | 50 (≈ 14.6 µM) | 25 (≈ 7.3 µM)
6.25 (≈ 2.4 µM) | 50 (≈ 19.2 µM) | 100 (≈ 38.3 µM) | 50 (≈ 19.2 µM) | 6.25 (≈ 2.4 µM) | 50 (≈ 19.2 µM) | CC(=O)NCC(=O)N[C@@H](Cc1ccccc1)C(=O)N1Cc2ccccc2C[C@H]1C(=O)N1CC2CCCCC2[C@H]1C(=O)NCC(=O)N[C@@H](CCCNC(=N)N)C(=O)N1Cc2ccccc2C[C@H]1C(=O)N1CC2CCCCC2[C@H]1C(=O)NCC(=O)N[C@@H](Cc1ccccc1)C(=O)N1Cc2ccccc2C[C@H]1C(=O)N1CC2CCCCC2[C@H]1C(=O)NCC(=O)N[C@@H](CCCNC(=N)N)C(=O)N1Cc2ccccc2C[C@H]1C(=O)N[C@@H](CCCNC(=N)N)C(=O)N[C@@H](CCCNC(=N)N)C(=O)N[C@@H](CCCNC(=N)N)C(=O)N[C@@H](CCCNC(=N)N)C(N)=O (stereo partly specified) (Ac-GF[Tic][Pro(3ξ,4ξ-(CH2)4)]GR[Tic][Pro(3ξ,4ξ-(CH2)4)]GF[Tic][Pro(3ξ,4ξ-(CH2)4)]GR[Tic]RRRR-NH2) | 25 (≈ 9.58 µM) | 50 (≈ 19.2 µM) | > 100 | 100 (≈ 38.3 µM) | 12.5 (≈ 4.79 µM) | > 100
50 (≈ 20.1 µM) | > 100 | > 100 | > 100 | 12.5 (≈ 5.03 µM) | > 100 | CC(=O)NCC(=O)N[C@@H](Cc1ccccc1)C(=O)N1Cc2ccccc2C[C@H]1C(=O)N1CC2CCCCC2[C@H]1C(=O)NCC(=O)N[C@@H](CCCCN)C(=O)N1Cc2ccccc2C[C@H]1C(=O)N1CC2CCCCC2[C@H]1C(=O)NCC(=O)N[C@@H](Cc1ccccc1)C(=O)N1Cc2ccccc2C[C@H]1C(=O)N1CC2CCCCC2[C@H]1C(=O)NCC(=O)N[C@@H](CCCCN)C(=O)N1Cc2ccccc2C[C@H]1C(=O)CCCN[C@@H](CCCCN)C(=O)N[C@@H](CCCCN)C(=O)N[C@@H](CCCCN)C(=O)N[C@@H](CCCCN)C(N)=O (stereo partly specified) (Ac-GF[Tic][Pro(3ξ,4ξ-(CH2)4)]GK[Tic][Pro(3ξ,4ξ-(CH2)4)]GF[Tic][Pro(3ξ,4ξ-(CH2)4)]GK-X3) | > 100 | > 100 | > 100 | > 100 | 50 (≈ 20.1 µM) | > 100
6.25 (≈ 1.79 µM) | > 100 | 50 (≈ 14.4 µM) | 50 (≈ 14.4 µM) | 12.5 (≈ 3.59 µM) | 50 (≈ 14.4 µM) | CC(C)C[C@H](NC(=O)[C@@H](N)CCCCN)C(=O)N1Cc2ccccc2C[C@H]1C(=O)N1CC2CCCCC2[C@H]1C(=O)N[C@@H](CCCCN)C(=O)NCC(=O)N1Cc2ccccc2C[C@H]1C(=O)N1CC2CCCCC2[C@H]1C(=O)N[C@@H](Cc1ccccc1)C(=O)N1Cc2ccccc2C[C@H]1C(=O)N1CC2CCCCC2[C@H]1C(=O)N[C@@H](CCCCN)C(=O)NCC(=O)N1Cc2ccccc2C[C@H]1C(=O)N1CC2CCCCC2[C@H]1C(=O)N[C@@H](Cc1ccccc1)C(=O)N1Cc2ccccc2C[C@H]1C(=O)N1CC2CCCCC2[C@H]1C(=O)N[C@@H](CCCCN)C(=O)NCC(=O)N1Cc2ccccc2C[C@H]1C(=O)N1CC2CCCCC2[C@H]1C(=O)N[C@@H](CCCCN)C(=O)N[C@@H](CCCCN)C(=O)N[C@@H](CCCCN)C(=O)N[C@@H](CCCCN)C(N)=O (stereo partly specified) (H-KL[Tic][Pro(3ξ,4ξ-(CH2)4)]KG[Tic][Pro(3ξ,4ξ-(CH2)4)]F[Tic][Pro(3ξ,4ξ-(CH2)4)]KG[Tic][Pro(3ξ,4ξ-(CH2)4)]F[Tic][Pro(3ξ,4ξ-(CH2)4)]KG[Tic][Pro(3ξ,4ξ-(CH2)4)]KKKK-NH2) | 6.25 (≈ 1.79 µM) | > 100 | 50 (≈ 14.4 µM) | 100 (≈ 28.7 µM) | 12.5 (≈ 3.59 µM) | 50 (≈ 14.4 µM)
